Data as given in ChEMBL document CHEMBL6087474, “Discovery of an Efficacious RET PROTAC Degrader with Enhanced Antiproliferative Activity against Resistant Cancer Cells Harboring RET Solvent-Front Mutations” (J Med Chem, 2025).
Calls of active or inactive are those of the source. The calls are words filed in the database; no cut-off is given here.

What was measured:
BaF3 [1] = assay: Antiproliferative activity against mouse BaF3 cells stably expressing KIF5B-RET-V804M mutant incubated for 72 hrs by CCK-8 assay; type: functional, cell-based; details: BaF3, 72 h
[2] = Effect on Shc protein level in mouse BaF3 cells stably expressing KIF5B-RET-G810C mutant assessed as fold change at 100 nM measured after 6 hrs by Western blot analysis (reference value: 1); type: functional
BaF3 [3] = assay: Antiproliferative activity against mouse BaF3 cells stably expressing CCDC6-RET incubated for 72 hrs by CCK-8 assay; type: functional, cell-based; details: BaF3, 72 h
[4] = Induction of apoptosis in mouse BaF3 cells stably expressing KIF5B-RET-G810C mutant assessed as early apoptotic cells at 100 nM measured after 48 hrs by Annexin V-FITC/7-AAD staining based flow cytometric analysis (reference value: 8.57 %); type: functional
[5] = Induction of apoptosis in mouse BaF3 cells stably expressing wildtype KIF5B-RET fusion protein assessed as late apoptotic cells at 100 nM measured after 48 hrs by Annexin V-FITC/7-AAD staining based flow cytometric analysis (reference value: 1.03 %); type: functional
[6] = Effect on Shc protein level in mouse BaF3 cells stably expressing KIF5B-RET-V804M mutant assessed as fold change at 33.3 nM measured after 6 hrs by Western blot analysis (reference value: 1); type: functional
[7] = Effect on Shc protein level in mouse BaF3 cells stably expressing KIF5B-RET-V804M mutant assessed as fold change at 11.1 nM measured after 6 hrs by Western blot analysis (reference value: 1); type: functional
[8] = Induction of apoptosis in mouse BaF3 cells stably expressing wildtype KIF5B-RET fusion protein assessed as late apoptotic cells at 11.1 nM measured after 48 hrs by Annexin V-FITC/7-AAD staining based flow cytometric analysis (reference value: 1.03 %); type: functional
[9] = Effect on Shc protein level in mouse BaF3 cells stably expressing KIF5B-RET-G810R mutant assessed as fold change at 300 nM measured after 6 hrs by Western blot analysis (reference value: 1); type: functional
[10] = Potency index, ratio of selpercatinib IC50 to test compound IC50 for antiproliferative activity against mouse BaF3 cells stably expressing KIF5B-RET-G810R mutant incubated for 72 hrs by CCK-8 assay; type: functional
[11] = Potency index, ratio of selpercatinib IC50 to test compound IC50 for antiproliferative activity against mouse BaF3 cells stably expressing KIF5B-RET-G810C mutant incubated for 72 hrs by CCK-8 assay; type: functional
[12] = Induction of apoptosis in mouse BaF3 cells stably expressing KIF5B-RET-G810C mutant assessed as late apoptotic cells at 33.3 nM measured after 48 hrs by Annexin V-FITC/7-AAD staining based flow cytometric analysis (reference value: 1.96 %); type: functional
[13] = PROTAC activity at CRBN/KIF5B-RET-G810R mutant (unknown origin) expressed in mouse BaF3 cells assessed as induction of RET degradation measured after 6 hrs by Western blot analysis; type: cell-based; details: BaF3, 6 h
[14] = Toxicity in male BALB/c mouse model implanted with mouse BaF3 cells stably expressing KIF5B-RET-G810C mutant assessed as body weight loss at 10 to 30 mg/kg, ip administered daily for 14 days; type: organism-based; details: in vivo, 336 h, dose 10-30 mg/kg, time 14 day
[15] = system: Kinesin-1 heavy chain/ Tyrosine-protein kinase receptor RET (Homo sapiens), P07949+P33176 [G810C]; assay: In vivo PROTAC activity at CRBN/KIF5B-RET-G810C mutant in male BALB/c mouse model implanted with mouse BaF3 cells stably expressing KIF5B-RET-G810C mutant assessed as induction of RET degradation in tumor at 10 mg/kg, ip measured after 3 days by Western blotting analysis relative to control; type: functional, organism-based; details: time 3.0 day
[16] = target: Protein cereblon/Eukaryotic peptide chain release factor GTP-binding subunit ERF3A (Mus musculus) (UniProt Q8C7D2+Q8R050); assay: PROTAC activity at CRBN/GSPT1 in mouse BaF3 cells overexpressing KIF5B-RET assessed as induction of GSPT1 degradation at 10 to 1000 nM incubated for 6 hrs by Western blot analysis; type: cell-based; details: dose 10-1000 nM
Sequence of Protein cereblon/Eukaryotic peptide chain release factor GTP-binding subunit ERF3A (Mus musculus) (Q8C7D2 whole entry, looked up): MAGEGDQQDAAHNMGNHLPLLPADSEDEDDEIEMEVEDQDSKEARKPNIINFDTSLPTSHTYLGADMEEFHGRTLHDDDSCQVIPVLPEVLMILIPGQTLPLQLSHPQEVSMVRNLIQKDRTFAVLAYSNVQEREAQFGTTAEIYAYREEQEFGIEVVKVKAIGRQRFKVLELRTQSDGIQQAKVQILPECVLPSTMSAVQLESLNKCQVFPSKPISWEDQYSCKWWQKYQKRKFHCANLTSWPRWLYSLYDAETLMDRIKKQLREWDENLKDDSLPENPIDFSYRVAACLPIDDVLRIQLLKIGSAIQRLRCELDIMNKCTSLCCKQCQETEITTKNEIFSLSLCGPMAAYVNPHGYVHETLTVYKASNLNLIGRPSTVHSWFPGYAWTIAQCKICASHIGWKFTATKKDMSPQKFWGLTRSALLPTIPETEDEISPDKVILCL
Sequence of Protein cereblon/Eukaryotic peptide chain release factor GTP-binding subunit ERF3A (Mus musculus) (Q8R050 whole entry, looked up): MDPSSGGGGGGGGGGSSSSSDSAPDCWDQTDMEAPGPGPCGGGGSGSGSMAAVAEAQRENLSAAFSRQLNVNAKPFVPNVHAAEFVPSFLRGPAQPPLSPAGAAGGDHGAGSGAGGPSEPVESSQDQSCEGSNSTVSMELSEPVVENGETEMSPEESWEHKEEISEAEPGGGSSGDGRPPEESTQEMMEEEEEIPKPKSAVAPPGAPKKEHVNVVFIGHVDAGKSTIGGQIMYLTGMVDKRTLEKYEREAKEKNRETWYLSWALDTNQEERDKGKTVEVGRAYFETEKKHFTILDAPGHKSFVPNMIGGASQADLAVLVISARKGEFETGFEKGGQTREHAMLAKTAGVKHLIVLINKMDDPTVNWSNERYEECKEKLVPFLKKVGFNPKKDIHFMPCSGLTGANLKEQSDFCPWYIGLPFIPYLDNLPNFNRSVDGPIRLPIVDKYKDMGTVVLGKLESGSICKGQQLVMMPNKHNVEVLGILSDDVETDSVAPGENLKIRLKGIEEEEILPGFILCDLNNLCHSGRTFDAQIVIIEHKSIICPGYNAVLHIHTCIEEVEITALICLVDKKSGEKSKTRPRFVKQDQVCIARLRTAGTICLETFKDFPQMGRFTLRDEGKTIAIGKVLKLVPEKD

[17] = Effect on RET protein level in mouse BaF3 cells stably expressing KIF5B-RET-V804M mutant assessed as fold change at 300 nM measured after 6 hrs by Western blot analysis (reference value: 1); type: functional
[18] = Induction of apoptosis in mouse BaF3 cells stably expressing wildtype KIF5B-RET fusion protein assessed as early apoptotic cells at 300 nM measured after 48 hrs by Annexin V-FITC/7-AAD staining based flow cytometric analysis (reference value: 9.92 %); type: functional
BaF3 [19] = assay: PROTAC activity at CRBN/KIF5B-RET (unknown origin) expressed in mouse BaF3 cells assessed as induction of RET degradation at 100 nM measured after 6 hrs by Western blot analysis relative to control; type: cell-based
[20] = Induction of apoptosis in mouse BaF3 cells stably expressing wildtype KIF5B-RET fusion protein assessed as necrotic cells at 11.1 nM measured after 48 hrs by Annexin V-FITC/7-AAD staining based flow cytometric analysis (reference value: 2.40 %); type: functional
[21] = Induction of apoptosis in mouse BaF3 cells stably expressing KIF5B-RET-G810C mutant assessed as necrotic cells at 33.3 nM measured after 48 hrs by Annexin V-FITC/7-AAD staining based flow cytometric analysis (reference value: 2.89 %); type: functional
[22] = Cmax in male ICR mouse at 10 mg/kg, ip measured after 24 hrs by LC-MS/MS analysis; type: ADME, organism-based; details: in vivo
BaF3 [23] = assay: Antiproliferative activity against mouse BaF3 cells stably expressing KIF5B-RET-G810S mutant incubated for 72 hrs by CCK-8 assay; type: functional, cell-based; details: BaF3, 72 h
[24] = Effect on Shc protein level in mouse BaF3 cells stably expressing wildtype KIF5B-RET assessed as fold change at 33.3 nM measured after 6 hrs by Western blot analysis; type: functional
[25] = PROTAC activity at CRBN/KIF5B-RET-G810C mutant (unknown origin) expressed in mouse BaF3 cells assessed as induction of RET degradation measured after 6 hrs by Western blot analysis; type: cell-based; details: BaF3, 6 h
[26] = Induction of apoptosis in mouse BaF3 cells stably expressing KIF5B-RET-G810C mutant assessed as viable cells at 300 nM measured after 48 hrs by Annexin V-FITC/7-AAD staining based flow cytometric analysis (reference value: 86.58 %); type: functional; details: read-out: Activity
[27] = Effect on RET protein level in mouse BaF3 cells stably expressing wildtype KIF5B-RET assessed as fold change at 100 nM measured after 6 hrs by Western blot analysis (reference value: 1); type: functional
BaF3 [28] = assay: PROTAC activity at CRBN/KIF5B-RET (unknown origin) expressed in mouse BaF3 cells assessed as induction of RET degradation by measuring maximal efficacy measured after 6 hrs by Western blot analysis relative to control; type: cell-based; details: Homo sapiens
[29] = Induction of apoptosis in mouse BaF3 cells stably expressing KIF5B-RET-G810C mutant assessed as necrotic cells at 100 nM measured after 48 hrs by Annexin V-FITC/7-AAD staining based flow cytometric analysis (reference value: 2.89 %); type: functional

COc1ccc(CN2C3CC2CN(c2ccc(-c4cc(-c5cnn(C6CCN(CCCCCC#Cc7cccc8c7CN(C7CCC(=O)NC7=O)C8=O)CC6)c5)cn5ncc(C#N)c45)cn2)C3)cn1 (centres undefined)
IC50 (BaF3 [1]): 40 nM
fold change (FC) [2]: 1
IC50 (BaF3 [3]): 10 nM
Activity [4]: 19.9%
Activity [5]: 0.99%
fold change (FC) [6]: 1
fold change (FC) [7]: 1
Activity [8]: 1.84%
fold change (FC) [9]: 0.9
Ratio IC50 [10]: ~7
Ratio IC50 [11]: ~14
Activity [12]: 1.62%
DC50 [13]: > 300 nM
Activity [14]: Non-toxic
Activity [15]: 47%
Activity [16]: inactive
fold change (FC) [17]: 0.1
Activity [18]: 48.33%
Activity (BaF3 [19]): 73%
Activity [20]: 3%
Activity [21]: 2.77%
Cmax [22]: 68 ng/mL
IC50 (BaF3 [23]): 90 nM
fold change (FC) [24]: 1
DC50 [25]: 73.8 nM
viability at 0.3 µM [26]: 63.1%
fold change (FC) [27]: 0.3
Emax (BaF3 [28]): 83%
Activity [29]: 2.09%
